Assays:
Assay in all cases: Kinase inhibitor library screening, PrestoBlue cell viability, 1 or 10 μM, 72 h
IGR37 cells (parental) = system: IGR37 cells (parental)
Experimental: (§1) After 72 h of treatment, cell viability was assessed using the PrestoBlue Cell Viability Reagent (ThermoFisher Scientific). Measurements were performed with the CLARIOstar Monochromator microplate reader (BMG Labtech).
(§2) Kinase inhibitor library screening. […] Each cell line was treated in its sensitive form (parental), and also as 2 resistant derivatives, which were made resistant to either Vemurafenib (XP) or Dabrafenib (GP). Drugs were added at 2 different concentrations, 1 and 10 μM, for 72 h and cell viability was assessed using the PrestoBlue Cell Viability assay. Results are depicted as % viability compared to untreated cells. Each cell line was analyzed at least in duplicate. […] (XLSX 95 kb)

[1] = system: 501Mel-XP cells (Vemurafenib-resistant); conditions: 72 h
Experimental: as §1, §2

[2] = system: A375-GP cells (Dabrafenib-resistant)
Experimental: as §1, §2

501Mel cells (parental) = conditions: 72 h
Experimental: as §1, §2

[3] = system: 501Mel-GP cells (Dabrafenib-resistant); conditions: 72 h
Experimental: as §1, §2

A375 cells (parental) = system: A375 cells (parental)
Experimental: as §1, §2

[4] = system: IGR37-GP cells (Dabrafenib-resistant)
Experimental: as §1, §2

[5] = system: A375-XP cells (Vemurafenib-resistant)
Experimental: as §1, §2

[6] = system: IGR37-XP cells (Vemurafenib-resistant)
Experimental: as §1, §2

[7] = IGR37 Parental, 1μΜ, 72 h, in %
[8] = IGR37 Parental, 10μΜ, 72 h, in %

CN1CCN(c2ccc3nc(-c4c(N)c5c(F)cccc5[nH]c4=O)[nH]c3c2)CC1 [Dovitinib (TKI-258)]
cell viability, IGR37 Parental, 1μΜ (IGR37 cells (parental); [7]): 96.1
cell viability, IGR37 Parental, 10μΜ (IGR37 cells (parental); [8]): 64.0
cell viability, 501Mel XP, 1μΜ ([1]; 501Mel XP, 1μΜ, in %): 87.1
cell viability, 501Mel XP, 10μΜ ([1]; 501Mel XP, 10μΜ, in %): -0.0348
cell viability, A375 GP, 1μΜ ([2]; A375 GP, 1μΜ, 72 h, in %): 93.5
cell viability, A375 GP, 10μΜ ([2]; A375 GP, 10μΜ, 72 h, in %): 42.2
cell viability, 501Mel Parental, 1μΜ (501Mel cells (parental); 501Mel Parental, 1μΜ, in %): 103.1
cell viability, 501Mel Parental, 10μΜ (501Mel cells (parental); 501Mel Parental, 10μΜ, in %): 0.6
cell viability, 501Mel GP, 1μΜ ([3]; 501Mel GP, 1μΜ, in %): 95.0
cell viability, 501Mel GP, 10μΜ ([3]; 501Mel GP, 10μΜ, in %): -0.1
cell viability, A375 Parental, 1μΜ (A375 cells (parental); A375 Parental, 1μΜ, 72 h, in %): 102.8
cell viability, A375 Parental, 10μΜ (A375 cells (parental); A375 Parental, 10μΜ, 72 h, in %): 47.2
cell viability, IGR37 GP, 10μΜ ([4]; IGR37 GP, 10μΜ, 72 h): 42.8%
cell viability, IGR37 GP, 1μΜ ([4]; IGR37 GP, 1μΜ, 72 h, in %): 99.9
cell viability, A375 XP, 1μΜ ([5]; A375 XP, 1μΜ, 72 h, in %): 97.7
cell viability, A375 XP, 10μΜ ([5]; A375 XP, 10μΜ, 72 h, in %): 58.3
cell viability, IGR37 XP, 10μΜ ([6]; IGR37 XP, 10μΜ, 72 h): 22.5%
cell viability, IGR37 XP, 1μΜ ([6]; IGR37 XP, 1μΜ, 72 h, in %): 102.6

Cc1nc(NC(=O)N2CCC[C@H]2C(N)=O)sc1-c1ccnc(C(C)(C)C(F)(F)F)c1 [BYL719]
Cell viability in kinase inhibitor library screening, IGR37 Parental, 1μΜ (IGR37 cells (parental); [7]): 99.1
Cell viability in kinase inhibitor library screening, IGR37 Parental, 10μΜ (IGR37 cells (parental); [8]): 77.8
Cell viability in kinase inhibitor library screening, 501Mel XP, 1μΜ ([1]; 501Mel XP, 1μΜ, in %): 90.3
Cell viability in kinase inhibitor library screening, 501Mel XP, 10μΜ ([1]; 501Mel XP, 10μΜ, in %): 56.3
Cell viability in kinase inhibitor library screening, A375 GP, 1μΜ ([2]; A375 GP, 1μΜ, 72 h): 86.9
Cell viability in kinase inhibitor library screening, A375 GP, 10μΜ ([2]; A375 GP, 10μΜ, 72 h): 52.5
Cell viability in kinase inhibitor library screening, 501Mel Parental, 1μΜ (501Mel cells (parental); 501Mel Parental, 1μΜ, in %): 99.0
Cell viability in kinase inhibitor library screening, 501Mel Parental, 10μΜ (501Mel cells (parental); 501Mel Parental, 10μΜ, in %): 90.7
Cell viability in kinase inhibitor library screening, 501Mel GP, 10μΜ ([3]; 501Mel GP, 10μΜ, in %): 62.2
Cell viability in kinase inhibitor library screening, A375 Parental, 10μΜ (A375 cells (parental); A375 Parental, 10μΜ, 72 h): 60.2
Cell viability in kinase inhibitor library screening, A375 Parental, 1μΜ (A375 cells (parental); A375 Parental, 1μΜ, 72 h): 93.2
Cell viability in kinase inhibitor library screening, IGR37 GP, 10μΜ ([4]; IGR37 GP, 10μΜ, 72 h): 62.1%
Cell viability in kinase inhibitor library screening, IGR37 GP, 1μΜ ([4]; IGR37 GP, 1μΜ, 72 h, in %): 90.5
Cell viability in kinase inhibitor library screening, A375 XP, 1μΜ ([5]; A375 XP, 1μΜ, 72 h): 93.5
Cell viability in kinase inhibitor library screening, A375 XP, 10μΜ ([5]; A375 XP, 10μΜ, 72 h): 62.9
Cell viability in kinase inhibitor library screening, IGR37 XP, 10μΜ ([6]; IGR37 XP, 10μΜ, 72 h): 20.2%
Cell viability in kinase inhibitor library screening, IGR37 XP, 1μΜ ([6]; IGR37 XP, 1μΜ, 72 h, in %): 80.6

O=C1Nc2ccccc2/C1=C1/Nc2ccccc2C1=O [Indirubin]
viability at 1 µM (IGR37 cells (parental); Homo sapiens, IGR-37, 72 h, read-out: cell viability, IGR37 Parental, 1μΜ): 100%
viability at 10 µM (IGR37 cells (parental); Homo sapiens, IGR-37, 72 h, read-out: cell viability, IGR37 Parental, 10μΜ): 105%
viability at 1 µM ([1]; Homo sapiens, read-out: cell viability, 501Mel XP, 1μΜ): 88.9%
viability at 10 µM ([1]; Homo sapiens, read-out: cell viability, 501Mel XP, 10μΜ): 70.4%
viability at 1 µM ([2]; Homo sapiens, A-375, 72 h, read-out: cell viability, A375 GP, 1μΜ): 95.3%
viability at 10 µM ([2]; Homo sapiens, A-375, 72 h, read-out: cell viability, A375 GP, 10μΜ): 96.4%
viability at 1 µM (501Mel cells (parental); Homo sapiens, read-out: cell viability, 501Mel Parental, 1μΜ): 104%
viability at 10 µM (501Mel cells (parental); Homo sapiens, read-out: cell viability, 501Mel Parental, 10μΜ): 101%
viability at 1 µM ([3]; Homo sapiens, read-out: cell viability, 501Mel GP, 1μΜ): 102%
viability at 10 µM ([3]; Homo sapiens, read-out: cell viability, 501Mel GP, 10μΜ): 91.5%
viability at 1 µM (A375 cells (parental); Homo sapiens, A-375, 72 h, read-out: cell viability, A375 Parental, 1μΜ): 101%
viability at 10 µM (A375 cells (parental); Homo sapiens, A-375, 72 h, read-out: cell viability, A375 Parental, 10μΜ): 95.1%
viability at 1 µM ([4]; Homo sapiens, IGR-37, 72 h, read-out: cell viability, IGR37 GP, 1μΜ): 94.7%
viability at 10 µM ([4]; Homo sapiens, IGR-37, 72 h, read-out: cell viability, IGR37 GP, 10μΜ): 91.3%
viability at 1 µM ([5]; Homo sapiens, A-375, 72 h, read-out: cell viability, A375 XP, 1μΜ): 102%
viability at 10 µM ([5]; Homo sapiens, A-375, 72 h, read-out: cell viability, A375 XP, 10μΜ): 103%
viability at 1 µM ([6]; Homo sapiens, IGR-37, 72 h, read-out: cell viability, IGR37 XP, 1μΜ): 95.7%
viability at 10 µM ([6]; Homo sapiens, IGR-37, 72 h, read-out: cell viability, IGR37 XP, 10μΜ): 75.6%

COc1cc(OC)c(/C=C/S(=O)(=O)Cc2ccc(OC)c(NCC(=O)O)c2)c(OC)c1 [Rigosertib (ON-01910)]
Cell viability in kinase inhibitor library screening, IGR37 Parental, 1μΜ (IGR37 cells (parental); [7]): 11.0
Cell viability in kinase inhibitor library screening, IGR37 Parental, 10μΜ (IGR37 cells (parental); [8]): 15.4
Cell viability in kinase inhibitor library screening, 501Mel XP, 1μΜ ([1]; 501Mel XP, 1μΜ, in %): 9.5
Cell viability in kinase inhibitor library screening, 501Mel XP, 10μΜ ([1]; 501Mel XP, 10μΜ, in %): 14.7
Cell viability in kinase inhibitor library screening, A375 GP, 1μΜ ([2]; A375 GP, 1μΜ, 72 h): 19.7
Cell viability in kinase inhibitor library screening, A375 GP, 10μΜ ([2]; A375 GP, 10μΜ, 72 h): 16.9
Cell viability in kinase inhibitor library screening, 501Mel Parental, 1μΜ (501Mel cells (parental); 501Mel Parental, 1μΜ, in %): 20.3
Cell viability in kinase inhibitor library screening, 501Mel Parental, 10μΜ (501Mel cells (parental); 501Mel Parental, 10μΜ, in %): 26.0
Cell viability in kinase inhibitor library screening, 501Mel GP, 1μΜ ([3]; 501Mel GP, 1μΜ, in %): 16.6
Cell viability in kinase inhibitor library screening, 501Mel GP, 10μΜ ([3]; 501Mel GP, 10μΜ, in %): 20.3
Cell viability in kinase inhibitor library screening, A375 Parental, 10μΜ (A375 cells (parental); A375 Parental, 10μΜ, 72 h): 15.2
Cell viability in kinase inhibitor library screening, A375 Parental, 1μΜ (A375 cells (parental); A375 Parental, 1μΜ, 72 h): 18.2
Cell viability in kinase inhibitor library screening, IGR37 GP, 10μΜ ([4]; IGR37 GP, 10μΜ, 72 h): 61.1%
Cell viability in kinase inhibitor library screening, IGR37 GP, 1μΜ ([4]; IGR37 GP, 1μΜ, 72 h, in %): 62.5
Cell viability in kinase inhibitor library screening, A375 XP, 1μΜ ([5]; A375 XP, 1μΜ, 72 h): 18.3
Cell viability in kinase inhibitor library screening, A375 XP, 10μΜ ([5]; A375 XP, 10μΜ, 72 h): 9.8
Cell viability in kinase inhibitor library screening, IGR37 XP, 10μΜ ([6]; IGR37 XP, 10μΜ, 72 h): 35.5%
Cell viability in kinase inhibitor library screening, IGR37 XP, 1μΜ ([6]; IGR37 XP, 1μΜ, 72 h, in %): 55.9
